# Test results from patent US8431593B2, “Heteroaryl amide derivatives” (H. Lundbeck A/S, priority 2006, dated 2013).
# Molecular target: T1, P2X7 receptor (Homo sapiens, UniProt Q99572)
# T1 construct: host or cells: SH-SY5Y
# T1 sequence (Q99572 1-595): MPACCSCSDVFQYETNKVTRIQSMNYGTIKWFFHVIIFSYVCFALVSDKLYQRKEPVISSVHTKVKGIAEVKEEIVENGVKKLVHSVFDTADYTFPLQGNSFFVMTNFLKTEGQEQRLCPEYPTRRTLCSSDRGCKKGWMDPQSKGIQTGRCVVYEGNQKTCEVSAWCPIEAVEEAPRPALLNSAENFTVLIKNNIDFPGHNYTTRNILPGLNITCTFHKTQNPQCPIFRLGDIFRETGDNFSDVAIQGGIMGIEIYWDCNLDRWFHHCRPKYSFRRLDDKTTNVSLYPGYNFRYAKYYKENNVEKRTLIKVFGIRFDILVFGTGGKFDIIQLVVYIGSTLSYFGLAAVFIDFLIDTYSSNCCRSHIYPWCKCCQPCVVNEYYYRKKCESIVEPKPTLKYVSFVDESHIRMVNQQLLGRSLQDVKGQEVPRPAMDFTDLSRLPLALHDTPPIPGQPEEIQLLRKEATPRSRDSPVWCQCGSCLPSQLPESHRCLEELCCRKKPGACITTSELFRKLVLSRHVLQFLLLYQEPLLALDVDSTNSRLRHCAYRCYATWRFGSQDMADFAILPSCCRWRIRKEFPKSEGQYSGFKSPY
# Experiment: P2X7 calcium mobilization assay, high throughput, antagonist activity (Example 4A)
# Type: cell-based
# Conditions: 50% decrease in the fluorescence response of cells exposed to 80 μM of 2′(3′)-O-(4-benzoyl-benzoyl)adenosine 5′-triphosphate; Example 4A; read-out: IC50
# In short: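 Antagonism was measured as calcium fluorescence (FLIPR Tetra) in cells seeded one day earlier at 100,000/well, loaded with dye for 1 h and exposed to compound for 1 h at room temperature before agonist. Peak RFU, minus the no-agonist background, was referenced to the mean of the agonist wells.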
row,IC50 [nM],Structure (SMILES)
1,< 2000,"N[C@@H]1CCCN(C(=O)Cc2cn3c(NC(=O)CC45CC6CC(CC(C6)C4)C5)cccc3n2)C1 [Compound 771, 2-adamantan-1-yl-N-(2-{2-[(3R)-3-aminopiperidin-1-yl]-2-oxoethyl}imidazo[1,2-a]pyridin-5-yl)acetamide]"
2,< 2000,"Cc1cnc(N(C)Cc2cn3c(C(=O)NCC45CC6CC(CC(C6)C4)C5)cccc3n2)nc1N [Compound 772, N-(adamantan-1-ylmethyl)-2-{[(4-amino-5-methylpyrimidin-2-yl)(methyl)amino]methyl}imidazo [1,2-a]pyridine-5-carboxamide]"
3,< 2000,"CN(Cc1cn2c(C(=O)NCC34CC5CC(CC(C5)C3)C4)cccc2n1)c1ncccc1C(=O)O [Compound 774, 2-[({5-[(adamantan-1-ylmethyl)carbamoyl]imidazo[1,2-a]pyridin-2-yl}methyl) (methyl)amino] nicotinic acid]"
4,< 2000,"N[C@@H]1CCN(C(=O)CCc2cn3c(C(=O)NCC45CC6CC(CC(C6)C4)C5)cccc3n2)C1 [Compound 778, N-(adamantan-1-ylmethyl)-2-{3-[(3R)-3-aminopyrrolidin-1-yl]-3-oxopropyl} imidazo[1,2-a] pyridine-5-carboxamide]"
5,< 2000,"CNC1CCN(C(=O)CCc2cn3c(C(=O)NCC45CC6CC(CC(C6)C4)C5)cccc3n2)C1 (centres unmarked) [Compound 779, N-(adamantan-1-ylmethyl)-2-{3-[3-(methylamino)pyrrolidin-1-yl]-3-oxopropyl} imidazo[1,2-a] pyridine-5-carboxamide]"
6,< 2000,"NC1CCCN(C(=O)CCc2cn3c(C(=O)NCC45CC6CC(CC(C6)C4)C5)cccc3n2)C1 (centres unmarked) [Compound 780, N-(adamantan-1-ylmethyl)-2-[3-(3-aminopiperidin-1-yl)-3-oxopropyl] imidazo[1,2-a] pyridine-5-carboxamide]"
7,< 2000,"CC(Cc1nnn[nH]1)c1cn2c(C(=O)NCC34CC5CC(CC(C5)C3)C4)cccc2n1 (centres unmarked) [Compound 781, N-(adamantan-1-ylmethyl)-2-[1-methyl-2-(1H-tetrazol-5-yl)ethyl] imidazo[1,2-a] pyridine-5-carboxamide]"
8,< 2000,"N[C@@H]1CCN(Cc2cn3c(C(=O)NCC(CC4CC4)c4ccccc4)cccc3n2)C1 (some centres unmarked) [Compound 782, 2-[(3-aminopyrrolidin-1-yl)methyl]-N-(3-cyclopropyl-2-phenylpropyl) imidazo [1,2-a]pyridine-5-carboxamide]"
9,< 2000,"N[C@@H]1CCN(Cc2cn3c(C(=O)NCC(CC4CCC4)c4ccccc4)cccc3n2)C1 (some centres unmarked) [Compound 783, 2-[(3-aminopyrrolidin-1-yl)methyl]-N-(3-cyclobutyl-2-phenylpropyl) imidazo [1,2-a]pyridine-5-carboxamide]"
10,< 2000,"CC(C)(C)OC(=O)N[C@@H]1CCN(Cc2cn3c(C(=O)NCC(CC4CCCCC4)c4ccccc4)cccc3n2)C1 (some centres unmarked) [Compound 785, tert-butyl [1-({5-[(3-cyclohexyl-2-phenylpropyl)carbamoyl]imidazo[1,2-a]pyridin-2-yl}methyl)pyrrolidin-3-yl]carbamate]"
11,< 2000,"N[C@@H]1CCN(Cc2cn3c(C(=O)NCC(CC4CCCC4)c4ccccc4)cccc3n2)C1 (some centres unmarked) [Compound 786, 2-[(3-aminopyrrolidin-1-yl)methyl]-N-(3-cyclopentyl-2-phenylpropyl) imidazo[1,2-a] pyridine-5-carboxamide]"
12,< 2000,"N[C@@H]1CCN(Cc2cn3c(C(=O)NCC(CC4CCCCC4)c4ccccc4)cccc3n2)C1 (some centres unmarked) [Compound 787, 2-[(3-aminopyrrolidin-1-yl)methyl]-N-(3-cyclohexyl-2-phenylpropyl) imidazo[1,2-a] pyridine-5-carboxamide]"
13,< 2000,"CC(C)(C)OC(=O)Nc1cn2c(C(=O)NCC34CC5CC(CC(C5)C3)C4)cccc2n1 [Compound 788, tert-butyl {5-[(adamantan-1-ylmethyl)carbamoyl]imidazo[1,2-a]pyridin-2-yl}carbamate]"
14,< 2000,"CC1(C)C2CC[C@H](CNC(=O)c3cccc4nc(CC(=O)NC5CCCC5)cn34)C1C2 (stereo partly drawn) [Compound 791, 2-[2-(cyclopentylamino)-2-oxoethyl]-N-{[(2S)-6,6-dimethylbicyclo [3.1.1]hept-2-yl]methyl}imidazo [1,2-a]pyridine-5-carboxamide]"
15,< 2000,"CC1(C)C2CC[C@H](CNC(=O)c3cccc4nc(CC(=O)NCC(F)(F)F)cn34)C1C2 (stereo partly drawn) [Compound 793, N-{[(2S)-6,6-dimethylbicyclo [3.1.1]hept-2-yl]methyl}-2-{2-oxo-2-[(2,2,2-trifluoroethyl)amino]ethyl}imidazo [1,2-a]pyridine-5-carboxamide]"
16,< 2000,"CC(C)CC(CNC(=O)c1cccc2nc(CC(=O)NC3CCCC3)cn12)c1ccc(Cl)cc1 (centres unmarked) [Compound 794, N-[2-(4-chlorophenyl)-4-methylpentyl]-2-[2-(cyclopentylamino)-2-oxoethyl]imidazo [1,2-a]pyridine-5-carboxamide]"
17,< 2000,"CC1(C)C2CC[C@H](CNC(=O)c3cccc4nc(CC(=O)N5CCSCC5)cn34)C1C2 (stereo partly drawn) [Compound 795, N-{[(2S)-6,6-dimethylbicyclo[3.1.1]hept-2-yl]methyl}-2-(2-oxo-2-thiomorpholin-4-ylethyl)imidazo[1,2-a] pyridine-5-carboxamide]"
18,< 2000,"CC(C)CC(CNC(=O)c1cccc2nc(CC(=O)NCC(F)(F)F)cn12)c1ccc(Cl)cc1 (centres unmarked) [Compound 796, N-[2-(4-chlorophenyl)-4-methylpentyl]-2-{2-oxo-2-[(2,2,2-trifluoroethyl)amino]ethyl} imidazo[1,2-a] pyridine-5-carboxamide]"
19,< 2000,"CC(C)CC(CNC(=O)c1cccc2nc(CC(=O)N3CCSCC3)cn12)c1ccccc1 (centres unmarked) [Compound 797, N-(4-methyl-2-phenylpentyl)-2-(2-oxo-2-thiomorpholin-4-ylethyl)imidazo [1,2-a]pyridine-5-carboxamide]"
20,< 2000,"CC(C)CC(CNC(=O)c1cccc2nc(CC(=O)N3CCSCC3)cn12)c1ccc(Cl)cc1 (centres unmarked) [Compound 798, N-[2-(4-chlorophenyl)-4-methylpentyl]-2-(2-oxo-2-thiomorpholin-4-ylethyl)imidazo[1,2-a] pyridine-5-carboxamide]"
21,< 2000,"CCOC(=O)C(Cc1ccc(Cl)cc1)c1cn2c(C(=O)NCC34CC5CC(CC(C5)C3)C4)cccc2n1 (centres unmarked) [Compound 800, ethyl 2-{5-[(adamantan-1-ylmethyl)carbamoyl]imidazo[1,2-a]pyridin-2-yl}-3-(4-chlorophenyl) propanoate]"
22,< 2000,"CCOC(=O)C(Cc1ccc(OC)cc1)c1cn2c(C(=O)NCC34CC5CC(CC(C5)C3)C4)cccc2n1 (centres unmarked) [Compound 801, ethyl 2-{5-[(adamantan-1-ylmethyl)carbamoyl]imidazo[1,2-a]pyridin-2-yl}-3-(4-methoxyphenyl) propanoate]"
23,< 2000,"CCOC(=O)C(CC(=O)N1CCOCC1)c1cn2c(C(=O)NCC34CC5CC(CC(C5)C3)C4)cccc2n1 (centres unmarked) [Compound 802, ethyl 2-{5-[(adamantan-1-ylmethyl)carbamoyl]imidazo[1,2-a]pyridin-2-yl}-4-morpholin-4-yl-4-oxobutanoate]"
24,< 2000,"O=C(NCC12CC3CC(CC(C3)C1)C2)c1cccc2nc(C(CC(=O)N3CCOCC3)C(=O)O)cn12 (centres unmarked) [Compound 803, 2-{5-[(adamantan-1-ylmethyl)carbamoyl]imidazo[1,2-a]pyridin-2-yl}-4-morpholin-4-yl-4-oxobutanoic acid]"
25,< 2000,"O=C(NCC12CC3CC(CC(C3)C1)C2)c1cccc2nc(C(Cc3ccc(Cl)cc3)C(=O)O)cn12 (centres unmarked) [Compound 804, 2-{5-[(adamantan-1-ylmethyl)carbamoyl]imidazo[1,2-a]pyridin-2-yl}-3-(4-chlorophenyl) propanoic acid]"
26,< 2000,"COc1ccc(CC(C(=O)O)c2cn3c(C(=O)NCC45CC6CC(CC(C6)C4)C5)cccc3n2)cc1 (centres unmarked) [Compound 805, 2-{5-[(adamantan-1-ylmethyl)carbamoyl]imidazo[1,2-a]pyridin-2-yl}-3-(4-methoxyphenyl) propanoic acid]"

row,Structure (SMILES),IC50 [nM]
1,"CC(C)CC(CNC(=O)c1cccc2nc(CC(=O)N3CCCC(N(C)C)C3)cn12)c1ccccc1 (centres unmarked) [Compound 789, 2-{2-[3-(dimethylamino)piperidin-1-yl]-2-oxoethyl}-N-(4-methyl-2-phenylpentyl) imidazo[1,2-a] pyridine-5-carboxamide]",< 2000
2,"CN(C)C1CCCN(C(=O)Cc2cn3c(C(=O)NC[C@H]4CCC5CC4C5(C)C)cccc3n2)C1 (stereo partly drawn) [Compound 790, 2-{2-[3-(dimethylamino)piperidin-1-yl]-2-oxoethyl}-N-{[(2S)-6,6-dimethylbicyclo [3.1.1]hept-2-yl]methyl}imidazo [1,2-a]pyridine-5-carboxamide]",< 2000
3,"CC(C)CC(CNC(=O)c1cccc2nc(CC(=O)N3CCCC(N(C)C)C3)cn12)c1ccc(Cl)cc1 (centres unmarked) [Compound 792, N-[2-(4-chlorophenyl)-4-methylpentyl]-2-{2-[3-(dimethylamino)piperidin-1-yl]-2-oxoethyl} imidazo[1,2-a] pyridine-5-carboxamide]",< 2000
